The results in this text go back to DBAASP.

In brackets after ≈: the same amount, converted by molar mass. Several values for one entry are separate records, joined by “and”; a condition that tells them apart may be missing. Identical values can stand only once.

Among the test systems are Candida albicans; Bacillus subtilis; Escherichia coli; Pseudomonas aeruginosa; Staphylococcus aureus.
What all share (assay): ≥ marks a high value that may be exact or a test limit, other limits are often not marked, values filed in µg/mL are converted to µM
Experiment [1] has as its system Escherichia coli ATCC 25922.
The subject of experiment [2] is Staphylococcus aureus ATCC 29213.
The subject of experiment [3] is Pseudomonas aeruginosa ATCC 27853.
Experiment [4] relates to Staphylococcus epidermidis ATCC 12228.
Experiment [5] deals with Enterococcus faecalis ATCC 29212.

`CC(=O)N[C@@H](CCCCN)C(=O)N[C@@H](Cc1ccc(O)cc1)C(=O)N[C@H](C(=O)NCC(=O)N[C@@H](CCCCN)C(=O)N[C@@H](CS)C(=O)N[C@H](C(=O)N[C@@H](CCCCN)C(=O)N[C@@H](CO)C(=O)N[C@@H](CCCCN)C(=O)N[C@@H](CC(N)=O)C(=O)N[C@@H](CCC(=O)O)C(=O)N[C@@H](CS)C(=O)N[C@@H](CCCCN)C(N)=O)[C@@H](C)O)[C@@H](C)O` [KYTGKCTKSKNECK] registered an MIC against Candida albicans of 10 µM (≈ 16.6 µg/mL).
As to `CC[C@H](C)[C@H](NC(=O)[C@H](CO)NC(=O)[C@H](C)NC(=O)[C@@H](NC(=O)[C@H](CCCCN)NC(=O)[C@H](CCCCN)NC(=O)[C@H](Cc1c[nH]c2ccccc12)NC(=O)[C@H](CC(N)=O)NC(=O)[C@@H](N)CCCCN)[C@@H](C)CC)C(=O)NCC(=O)N[C@@H](CCCCN)C(=O)N[C@@H](CCC(=O)O)C(=O)N[C@H](C(=O)N[C@@H](CC(C)C)C(=O)N[C@@H](CCCCN)C(=O)N[C@@H](C)C(=O)N[C@@H](CC(C)C)C(N)=O)C(C)C` [KNWKKIASIGKEVLKAL], the MIC with Bacillus subtilis is at least 60 µM; against Escherichia coli, 12.5 µM (≈ 24.1 µg/mL).
Consider `CC[C@H](C)[C@H](NC(=O)CN)C(=O)NCC(=O)N[C@@H](CCCCN)C(=O)N[C@@H](Cc1ccccc1)C(=O)N[C@H](C(=O)N[C@@H](Cc1cnc[nH]1)C(=O)N[C@@H](CO)C(=O)N[C@@H](C)C(=O)N[C@@H](CCCCN)C(=O)N[C@@H](CCCN=C(N)N)C(=O)N[C@@H](Cc1ccccc1)C(=O)NCC(=O)N[C@@H](CCCN=C(N)N)C(=O)N[C@@H](C)C(=O)N[C@@H](Cc1c[nH]c2ccccc12)C(=O)N[C@H](C(=O)NCC(=O)N[C@@H](CCC(=O)O)C(=O)N[C@H](C(=O)N[C@@H](CCSC)C(=O)N[C@@H](CC(N)=O)C(=O)N[C@@H](CO)C(N)=O)[C@@H](C)CC)C(C)C)[C@@H](C)CC` [GIGKFIHSAKRFGRAWVGEIMNS], for which the values for the MIC in the experiment with Escherichia coli, in the experiment on Pseudomonas aeruginosa and with Staphylococcus aureus were 37.5 µM (≈ 96 µg/mL), 75 µM (≈ 192 µg/mL) and over 75 µM, respectively.
In the case of `CC(C)[C@H](NC(=O)[C@H](Cc1c[nH]c2ccccc12)NC(=O)[C@H](CCCN=C(N)N)NC(=O)[C@@H](N)CCCN=C(N)N)C(=O)N[C@@H](C)C(=O)N[C@@H](Cc1c[nH]c2ccccc12)C(=O)N[C@@H](CCCN=C(N)N)C(=O)N[C@@H](CC(N)=O)C(=O)N[C@@H](CCCN=C(N)N)C(=O)O` [RRWVAWRNR], the MIC in [1] and in [2] was 96 µM (≈ 125 µg/mL) in each case.
As for `CC[C@H](C)[C@H](NC(=O)[C@H](CC(C)C)NC(=O)[C@H](C)NC(=O)[C@@H]1CCCN1C(=O)[C@H](CC(C)C)NC(=O)CN)C(=O)N[C@@H](CO)C(=O)N[C@@H](Cc1c[nH]c2ccccc12)C(=O)N[C@H](C(=O)N[C@@H](CCCCN)C(=O)N[C@@H](CCCN=C(N)N)C(=O)N[C@@H](CCCCN)C(=O)N[C@@H](CCCN=C(N)N)C(=O)NCC(=O)NCC(N)=O)[C@@H](C)CC` [GLPALISWIKRKRGG], the results for the MIC against Bacillus subtilis, against Escherichia coli and in the experiment on Staphylococcus aureus were 1.48 µM (≈ 2.45 µg/mL), 47.4 µM (≈ 78.3 µg/mL) and 1.57 µM (≈ 2.6 µg/mL), respectively.
The matching figures for `CC[C@H](C)[C@H](NC(=O)[C@H](CC(C)C)NC(=O)[C@H](C)NC(=O)[C@@H]1CCCN1C(=O)[C@H](CC(C)C)NC(=O)CN)C(=O)N[C@@H](CO)C(=O)N[C@@H](CO)C(=O)N[C@H](C(=O)N[C@@H](CCCCN)C(=O)N[C@@H](CCCN=C(N)N)C(=O)N[C@@H](CCCCN)C(=O)N[C@@H](CCCN=C(N)N)C(=O)N[C@@H](CCC(N)=O)C(=O)N[C@@H](CCC(N)=O)C(N)=O)[C@@H](C)CC` [GLPALISSIKRKRQQ]: at least 45.1 µM, over 180 µM and 22.5 µM (≈ 38.2 µg/mL).
As for `CC[C@H](C)[C@H](NC(=O)[C@H](C)NC(=O)[C@H](CCCCN)NC(=O)CNC(=O)[C@@H](NC(=O)[C@H](CCCCN)NC(=O)[C@@H](NC(=O)[C@H](C)NC(=O)[C@H](CCCCN)NC(=O)CNC(=O)[C@H](Cc1c[nH]c2ccccc12)NC(=O)[C@H](CCCCN)NC(=O)[C@@H](NC(=O)[C@H](C)NC(=O)[C@H](CCCCN)NC(=O)CNC(=O)[C@@H](NC(=O)[C@@H](N)CCCCN)[C@@H](C)CC)[C@@H](C)CC)[C@@H](C)CC)[C@@H](C)CC)C(N)=O` [KIGKAIKWGKAIKIGKAI], the MIC is 16.6 µM (≈ 32 µg/mL) with Escherichia coli, 33.3 µM (≈ 64 µg/mL) in the experiment with Pseudomonas aeruginosa and over 133 µM in the experiment with Staphylococcus aureus.
As for `CC(=O)N[C@@H](CC(C)C)C(=O)N[C@@H](CCCCN)C(=O)N[C@@H](CCCCN)C(=O)N[C@@H](CC(C)C)C(=O)N[C@@H](CC(C)C)C(=O)N1CCC[C@H]1C(=O)N[C@@H](CC(C)C)C(=O)N[C@@H](CC(C)C)C(=O)N[C@@H](CCCCN)C(=O)N[C@@H](CCCCN)C(=O)N[C@@H](CC(C)C)C(=O)N[C@@H](CC(C)C)C(=O)N[C@@H](CCCCN)C(=O)N[C@@H](CC(C)C)C(N)=O` [LKKLLPLLKKLLKL], the MIC in experiment [1] is 10 µM (≈ 17 µg/mL); in experiment [2] it was 2.5 µM (≈ 4.26 µg/mL).
As for `CC[C@H](C)[C@H](N)C(=O)N[C@@H](CC(C)C)C(=O)NCC(=O)N[C@@H](CCCCN)C(=O)N[C@@H](CC(C)C)C(=O)N[C@@H](Cc1c[nH]c2ccccc12)C(=O)N[C@@H](CCC(=O)O)C(=O)NCC(=O)N[C@H](C(=O)N[C@@H](CCCCN)C(=O)N[C@@H](CO)C(=O)N[C@H](C(N)=O)[C@@H](C)CC)C(C)C` [ILGKLWEGVKSI], the MIC (in [3]; with Pseudomonas aeruginosa) was over 25 µM each time.
For the molecule `CC[C@H](C)[C@H](NC(=O)[C@H](Cc1c[nH]c2ccccc12)NC(=O)CNC(=O)[C@H](CCCCN)NC(=O)CNC(=O)[C@H](Cc1ccccc1)NC(=O)[C@H](Cc1cnc[nH]1)NC(=O)[C@H](C)NC(=O)[C@H](C)NC(=O)[C@H](C)NC(=O)[C@H](CCCCN)NC(=O)CNC(=O)[C@H](Cc1ccccc1)NC(=O)[C@H](CCCCN)NC(=O)[C@H](C)NC(=O)[C@@H](NC(=O)CN)C(C)C)C(=O)N[C@@H](CCCCN)C(=O)N[C@@H](CCC(=O)O)C(=O)N[C@@H](CCSC)C(=O)N[C@@H](CC(C)C)C(=O)N[C@@H](CC(N)=O)C(=O)N[C@@H](CO)C(N)=O` [GVAKFGKAAAHFGKGWIKEMLNS], the MIC in experiment [1], in experiment [3] and in [2] was over 76 µM each time.
For `CC[C@H](C)[C@H](NC(=O)[C@H](C)NC(=O)CNC(=O)[C@@H](NC(=O)[C@H](CCCCN)NC(=O)[C@H](CCCCN)NC(=O)[C@@H](NC(=O)[C@H](C)NC(=O)CNC(=O)[C@H](Cc1c[nH]c2ccccc12)NC(=O)[C@H](CCCCN)NC(=O)[C@H](CCCCN)NC(=O)[C@@H](NC(=O)[C@H](C)NC(=O)CNC(=O)[C@@H](NC(=O)[C@@H](N)CCCCN)[C@@H](C)CC)[C@@H](C)CC)[C@@H](C)CC)[C@@H](C)CC)C(=O)N[C@@H](CCCCN)C(N)=O` [KIGAIKKWGAIKKIGAIK], the MIC in the experiment with Escherichia coli, with Pseudomonas aeruginosa and with Staphylococcus aureus was over 133 µM each time.
As to `CC[C@H](C)[C@H](NC(=O)CNC(=O)[C@H](CC(C)C)NC(=O)[C@@H](NC(=O)[C@H](Cc1ccc(O)cc1)NC(=O)[C@@H](NC(=O)[C@H](CO)NC(=O)[C@@H](NC(=O)[C@@H]1CCCN1C(=O)[C@@H](NC(=O)[C@@H](N)CO)C(C)C)[C@@H](C)O)C(C)C)[C@@H](C)O)C(=O)N[C@@H](CCCCN)C(=O)N[C@H](C(=O)N[C@@H](CC(C)C)C(=O)N[C@@H](Cc1c[nH]c2ccccc12)C(=O)N[C@@H](CO)C(=O)N[C@@H](C)C(=O)N[C@@H](Cc1ccc(O)cc1)C(=O)N[C@@H](CCCCN)C(=O)N[C@@H](Cc1cnc[nH]1)C(=O)N[C@@H](CCCN=C(N)N)C(=O)N[C@@H](CCCCN)C(=O)N[C@H](C(=O)N[C@H](C(=O)N[C@@H](CCC(=O)O)C(=O)N[C@@H](CCCCN)C(=O)N[C@@H](CO)C(=O)N[C@@H](Cc1ccccc1)C(=O)N[C@@H](CC(N)=O)C(=O)N[C@@H](CCCCN)C(=O)NCC(=O)N[C@@H](Cc1ccccc1)C(=O)N[C@@H](Cc1ccc(O)cc1)C(=O)N[C@@H](Cc1cnc[nH]1)C(=O)O)[C@@H](C)CC)[C@@H](C)O)[C@@H](C)CC` [SVPTSVYTLGIKILWSAYKHRKTIEKSFNKGFYH], the MIC in experiment [4] turned out to be 50 µM (≈ 200 µg/mL).
Consider `CC[C@H](C)[C@H](NC(=O)[C@H](CCCCN)NC(=O)[C@H](CCCCN)NC(=O)[C@@H](NC(=O)[C@@H](NC(=O)[C@H](CCCCN)NC(=O)[C@H](Cc1ccccc1)NC(=O)[C@H](CC(C)C)NC(=O)CN)[C@@H](C)CC)[C@@H](C)CC)C(=O)N[C@@H](Cc1c[nH]c2ccccc12)C(=O)N[C@@H](CCCCN)C(=O)N[C@@H](CO)C(=O)N[C@@H](Cc1ccccc1)C(N)=O` [GLFKIIKKIWKSF], for which the MIC in experiment [5] was 15.5 µM and 31.1 µM; in [1], 3.89 µM and 7.77 µM; in experiment [2], 1.94 µM and 3.89 µM.
On to `CC(=O)N[C@@H](CC(C)C)C(=O)N[C@@H](CCCCN)C(=O)N[C@@H](CCCCN)C(=O)N[C@@H](CC(C)C)C(=O)N[C@@H](CC(C)C)C(=O)N[C@@H](CCCCN)C(=O)N[C@@H](CC(C)C)C(=O)N[C@@H](CC(C)C)C(=O)N[C@@H](CCCCN)C(=O)N[C@@H](CCCCN)C(=O)N[C@@H](CC(C)C)C(=O)N[C@@H](CC(C)C)C(=O)N[C@@H](CCCCN)C(=O)N[C@@H](CC(C)C)C(=O)N[C@@H](C)C(=O)NCC(N)=O` [LKKLLKLLKKLLKLAG], for which the MIC in experiment [1] and in experiment [2] was 20 µM (≈ 37.2 µg/mL) each time.
As to `CC(=O)N[C@@H](CC(C)C)C(=O)N[C@@H](CCCCN)C(=O)N[C@@H](CCCCN)C(=O)N[C@@H](CC(C)C)C(=O)N[C@@H](CC(C)C)C(=O)N[C@@H](CCCCN)C(=O)N1CCC[C@H]1C(=O)N[C@@H](CC(C)C)C(=O)N[C@@H](CCCCN)C(=O)N[C@@H](CCCCN)C(=O)N[C@@H](CC(C)C)C(=O)N[C@@H](CC(C)C)C(=O)N[C@@H](CCCCN)C(=O)N[C@@H](CC(C)C)C(N)=O` [LKKLLKPLKKLLKL], the MIC in [1] and in experiment [2] was 20 µM (≈ 34.3 µg/mL) each time.
